{"source": "ChEMBL document CHEMBL5634090", "about": "“Design of phenothiazine-based cationic amphiphilic derivatives incorporating arginine residues: Potential membrane-active broad-spectrum antimicrobials combating pathogenic bacteria in vitro and in vivo” (Eur J Med Chem, 2023)", "system": "Klebsiella pneumoniae", "experiment": "Antibacterial activity against Klebsiella pneumoniae ATCC 10031 in presence of 140 mmol/L Na+ by broth microdilution method", "type": "functional", "data": [{"smiles": "CCCCCCCN1c2ccccc2Sc2ccc(OCC(=O)N[C@@H](CCCNC(=N)N)C(=O)N[C@@H](CCCNC(=N)N)C(N)=O)cc21", "values": [{"measurement": "MIC", "value": 3.12, "unit": "µg/mL"}]}]}
